Results from publication PMC4766439, “Discovery of novel PDE9 inhibitors capable of inhibiting Aβ aggregation as potential candidates for the treatment of Alzheimer’s disease” (Scientific Reports, 2016).
Like-named read-outs stand apart in the source and are kept apart here.

Tests used:
Aβ1-42 fibrils = target: T1, Aβ1-42 fibrils (Homo sapiens, UniProt P05067); test: ThT assay, disaggregation of Cu^2+-induced Aβ1-42 fibrils; type: biochemical; details: [Aβ1-42] = 25 μM, compound 50 μM, [Cu^2+] = 25 μM, additional 24 h
T1 construct: purchased Sigma
Protocol: For assaying the disaggregation of the copper (II)-induced Aβ1-42 fibrils, the Aβ1-42 stock solution was first diluted in HEPES buffer ([…], pH 6.6). The mixture of the peptide (10 μL, 25 μM final concentration) and copper (II) (10 μL, 25 μM final concentration) was then incubated at 37 °C for 24 h. Then, the test compound (10 μL, 50 μM final concentration) was added and incubated at 37 °C for an additional 24 h. Thereafter, 30 μL of the sample was diluted to a final volume of 200 μL with 50 mM glycine-NaOH buffer (pH 8.0) containing thioflavin-T (5 μM) in the dark. The detection method used was the same as that described above.

Aβ1-42 [1] = target: T2, Aβ1-42 (Homo sapiens, UniProt P05067); test: ThT assay, inhibition of Cu^2+-induced Aβ1-42 aggregation; type: biochemical; details: [Aβ1-42] = 25 μM, compound 50 μM, [Cu^2+] = 25 μM, 37 °C, 24 h
T2 construct: the Aβ1-42 stock solution was diluted with HEPES buffer; purchased Sigma
Protocol: The Aβ1−42 sample (Sigma, US) was pretreated with hexafluoro-2-propanol (HFIP) and dissolved in ammonium hydroxide (1% v/v) to prepare a stock solution (2000 μM) that was aliquoted into small samples and stored at −80 °C.

Aβ1-42 [2] = target: T2, Aβ1-42; test: Transmission electron microscopy (TEM) assay of Aβ1-42; type: biochemical; details: [Aβ1-42] = 25 μM, compound 50 μM, [Cu^2+] = 25 μM, 37 °C, 24 h
Protocol: The assays were performed as reported previously. For the TEM assay of copper (II)-induced Aβ1-42 aggregation and the disaggregation of the fibrils, the samples were pretreated as described for the ThT assay. Samples (10 μL) were placed on a carbon-coated copper/rhodium grid for 2 min. Then, each grid was stained with uranyl acetate (1%, 5 μL) for 2 min. After the excess staining solution was drained off, the specimen was transferred for imaging by a transmission electron microscope (JEOL JEM-1400).

[3] = Oxygen Radical Absorbance Capacity (ORAC-FL) assay; details: Trolox as standard
Protocol: The assays were performed in 75 mM PBS (pH 7.4) and all the tested compounds were dissolved in DMSO and diluted with the PBS. Trolox was used as a standard (1–10 μM final concentration). The tested compounds at different concentrations (20 μL, final concentration: 2 μM) and fluorescein (FL, 120 μL, final concentration: 300 nM) were placed in the wells of a black 96-well plate. The mixture was incubated for 10 min at 37 °C and then, APPH solution (60 μL, final concentration: 12 mM diluted by 75 mM PBS) was added rapidly. […] A blank (FL + AAPH), with PBS replacing the compounds and Trolox was used for calibration in each assay. The compounds were tested at different concentrations (0.5–10 μM). The experiments were performed in three independent runs for each sample. The fluorescence measurements were normalized to that of the blank (without antioxidant). The area under the fluorescence decay curve (AUC) was calculated using the following equation (eq. 2):
where f0 is the fluorescence reading at 0 min and fi is the fluorescence reading at time i. The net AUC was calculated by the expression AUCsample − AUCblank. Regression equations between net AUC and Trolox concentrations were calculated. The final results were expressed in μM of Trolox equivalent/μM of pure compounds.

[4] = PAMPA-BBB in vitro blood-brain barrier permeation assay; type: in vitro ADME; details: for Papp at 10 h, 100 μg/mL: PAMPA, read-out: Permeability; for prediction of penetration into the CNS: from PAMPA-BBB Pe
Protocol: The blood–brain barrier penetration capacity of the compounds was evaluated by using the parallel artificial membrane permeation assay (PAMPA). […] The porcine brain lipid (PBL) was obtained from Avanti Polar Lipids. The donor microplate (PVDF membrane, pore size of 0.45 nm) and the acceptor microplate were from Millipore. The acceptor 96-well microplate (COSTAR) was filled with 300 μL of a PBS/EtOH mixture (7:3) and the filter membrane was impregnated with 4 μL of PBL in dodecane (20 mg/mL). The compounds were dissolved in DMSO at a concentration of 5 mg/mL and diluted with the PBS/EtOH mixture (7:3) to a concentration of 100 μg /mL. Then, 200 μL of this solution was added to the donor wells and the wells were carefully placed on the acceptor plate, which was then incubated for 10 h at 25 °C in a vibrationless environment. After the incubation, the donor plate was removed and the concentration of compounds in the acceptor wells was determined with a UV plate reader (Flexstation 3). Each sample was analyzed at five wavelengths in four wells, and at least three independent runs were performed. The results are expressed as the mean ± standard deviation. In these experiments, 13 quality control standards of known BBB permeability were included to validate the analysis set.
where Vd is the volume in the donor well, Va is the volume in acceptor well, A is the filter area, t is the permeation time, [drug]acceptor is the absorbance of the compound in the acceptor well, and [drug]equilibrium is the theoretical equilibrium absorbance.

PDE9A2 (181–506) = target: T3, PDE9A2 (181–506) (Homo sapiens, UniProt O76083); test: PDE activity assay, PDE9 catalytic domain; type: biochemical; details: means ± SD of at least three independent experiments
T3 construct: PDE9A2 (181–506)
Protocol: (§1) The enzymatic activities of the catalytic domains of PDE9 and other PDEs were measured by using cGMP or cAMP as substrates. The assay buffer contained 20–50 mM Tris–HCl (pH 7.5–8.0), 10 mM MgCl2 or 4 mM MnCl2, 1 mM DTT, and 10–20 nM ^3H-cGMP or ^3H-cAMP (20000–30000 cpm/assay, GE Healthcare). The reaction was performed at room temperature for 15 min and then terminated by the addition of 0.2 M ZnSO4. The addition of 0.25 M BaSO4 precipitated the generated ^3H-GMP, whereas the unreacted ^3H-cGMP remained in solution. The radioactivity in the supernatant was measured in 2.5 mL with an Ultim Gold liquid scintillation counter. […] The IC50 values were calculated by nonlinear regression method by using GraphPad Prism 5.0 Software.

PDE2A3 (580–941) = target: T4, PDE2A3 (580–941) (Homo sapiens, UniProt O00408); test: PDE activity assay, PDE2A3 catalytic domain; type: biochemical
T4 construct: PDE2A3 (580–941)
Protocol: as §1

PDE10A2 (448–789) = target: T5, PDE10A2 (448–789) (Homo sapiens, UniProt Q9Y233); test: PDE activity assay, PDE10A2 catalytic domain; type: biochemical
T5 construct: PDE10A2 (448–789)
Protocol: as §1

[5] = Lipid-water distribution coefficient, shake-flask 1-octanol/water; type: physicochemical; details: 1-octanol/water (1:1), means of at least three independent tests
PDE1B2 (10–487) = target: T6, PDE1B2 (10–487) (Homo sapiens, UniProt Q01064); test: PDE activity assay, PDE1B2 catalytic domain; type: biochemical
T6 construct: PDE1B2 (10–487)
Protocol: as §1

PDE7A1 (130–482) = target: T7, PDE7A1 (130–482) (Homo sapiens, UniProt Q13946); test: PDE activity assay, PDE7A1 catalytic domain; type: biochemical
T7 construct: PDE7A1 (130–482)
Protocol: as §1

PDE8A1 (480–820) = target: T8, PDE8A1 (480–820) (Homo sapiens, UniProt O60658); test: PDE activity assay, PDE8A1 catalytic domain; type: biochemical
T8 construct: PDE8A1 (480–820)
Protocol: as §1

PDE4D2 (86–413) = target: T9, PDE4D2 (86–413) (Homo sapiens, UniProt Q08499); test: PDE activity assay, PDE4D2 catalytic domain; type: biochemical
T9 construct: PDE4D2 (86–413)
Protocol: as §1

PDE3A (679–1087) = target: T10, PDE3A (679–1087) (Homo sapiens, UniProt Q14432); test: PDE activity assay, PDE3A catalytic domain; type: biochemical
T10 construct: PDE3A (679–1087)
Protocol: as §1

PDE5A1 (535–860) = PDE5A1 (535–860) (Homo sapiens, UniProt O76074); test: PDE activity assay, PDE5A1 catalytic domain; type: biochemical
Protocol: as §1

[6] = PBS:EtOH (70:30), mean ± SD of three independent experiments

T3 sequence (O76083 241-566): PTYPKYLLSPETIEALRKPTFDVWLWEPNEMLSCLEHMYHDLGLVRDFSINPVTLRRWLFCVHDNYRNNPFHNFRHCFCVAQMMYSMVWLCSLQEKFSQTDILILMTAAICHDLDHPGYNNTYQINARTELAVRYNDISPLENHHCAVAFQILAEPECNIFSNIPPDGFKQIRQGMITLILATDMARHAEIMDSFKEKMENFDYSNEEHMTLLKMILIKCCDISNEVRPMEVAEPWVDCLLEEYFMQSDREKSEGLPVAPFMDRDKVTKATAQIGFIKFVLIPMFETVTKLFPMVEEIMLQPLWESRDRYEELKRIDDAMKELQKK
T2 sequence (P05067 672-713 limits assumed): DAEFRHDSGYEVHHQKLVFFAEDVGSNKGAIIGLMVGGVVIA
T10 sequence (Q14432 679-1087): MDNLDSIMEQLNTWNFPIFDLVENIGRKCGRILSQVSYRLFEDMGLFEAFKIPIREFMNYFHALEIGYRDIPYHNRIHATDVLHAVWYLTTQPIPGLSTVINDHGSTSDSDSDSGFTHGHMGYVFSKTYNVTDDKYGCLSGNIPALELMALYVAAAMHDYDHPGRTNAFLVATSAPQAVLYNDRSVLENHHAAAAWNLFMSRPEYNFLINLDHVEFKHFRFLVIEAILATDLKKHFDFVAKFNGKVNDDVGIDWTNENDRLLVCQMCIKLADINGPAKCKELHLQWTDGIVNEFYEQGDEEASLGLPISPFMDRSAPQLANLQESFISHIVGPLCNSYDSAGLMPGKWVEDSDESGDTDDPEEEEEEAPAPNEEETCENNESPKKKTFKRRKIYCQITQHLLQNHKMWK
T8 sequence (O60658 480-820): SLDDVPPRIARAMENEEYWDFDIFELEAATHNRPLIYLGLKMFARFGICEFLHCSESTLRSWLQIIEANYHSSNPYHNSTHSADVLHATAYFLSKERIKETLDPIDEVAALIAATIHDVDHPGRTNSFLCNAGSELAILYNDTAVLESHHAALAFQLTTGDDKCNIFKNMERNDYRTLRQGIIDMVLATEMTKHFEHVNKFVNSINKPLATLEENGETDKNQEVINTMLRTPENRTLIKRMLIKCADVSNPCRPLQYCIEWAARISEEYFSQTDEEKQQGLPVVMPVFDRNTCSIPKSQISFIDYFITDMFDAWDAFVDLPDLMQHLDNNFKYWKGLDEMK
T9 sequence (Q08499 388-715): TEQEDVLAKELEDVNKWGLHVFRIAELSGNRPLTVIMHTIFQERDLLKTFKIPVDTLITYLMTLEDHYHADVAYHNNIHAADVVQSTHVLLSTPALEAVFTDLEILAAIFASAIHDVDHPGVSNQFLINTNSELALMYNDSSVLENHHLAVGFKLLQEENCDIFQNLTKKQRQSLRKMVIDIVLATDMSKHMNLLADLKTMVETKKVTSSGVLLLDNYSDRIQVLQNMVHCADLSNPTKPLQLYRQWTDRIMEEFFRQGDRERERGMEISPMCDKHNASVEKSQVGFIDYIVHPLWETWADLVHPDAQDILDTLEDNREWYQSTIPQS
T7 sequence (Q13946 130-482): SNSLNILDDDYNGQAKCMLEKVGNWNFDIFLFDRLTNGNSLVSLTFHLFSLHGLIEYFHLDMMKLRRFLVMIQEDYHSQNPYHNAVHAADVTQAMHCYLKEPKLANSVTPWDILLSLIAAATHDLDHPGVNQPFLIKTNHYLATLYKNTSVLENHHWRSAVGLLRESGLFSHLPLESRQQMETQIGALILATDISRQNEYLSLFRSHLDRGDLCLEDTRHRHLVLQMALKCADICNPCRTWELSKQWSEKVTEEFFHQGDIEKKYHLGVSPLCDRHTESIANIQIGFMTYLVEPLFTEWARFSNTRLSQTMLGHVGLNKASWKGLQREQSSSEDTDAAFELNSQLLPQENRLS
T6 sequence (Q01064 10-487 isoform Q01064-2): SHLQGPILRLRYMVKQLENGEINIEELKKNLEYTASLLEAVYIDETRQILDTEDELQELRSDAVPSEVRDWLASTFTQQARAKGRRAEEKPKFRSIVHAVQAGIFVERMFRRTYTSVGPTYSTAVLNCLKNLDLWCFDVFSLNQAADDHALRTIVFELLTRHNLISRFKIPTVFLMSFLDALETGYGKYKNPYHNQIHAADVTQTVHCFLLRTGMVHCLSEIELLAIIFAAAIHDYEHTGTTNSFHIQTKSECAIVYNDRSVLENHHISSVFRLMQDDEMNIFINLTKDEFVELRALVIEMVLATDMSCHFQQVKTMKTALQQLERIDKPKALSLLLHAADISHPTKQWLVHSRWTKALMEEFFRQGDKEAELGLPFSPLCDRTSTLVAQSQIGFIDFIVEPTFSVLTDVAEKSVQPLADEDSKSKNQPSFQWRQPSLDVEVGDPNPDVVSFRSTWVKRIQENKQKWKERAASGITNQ
T4 sequence (O00408 580-941): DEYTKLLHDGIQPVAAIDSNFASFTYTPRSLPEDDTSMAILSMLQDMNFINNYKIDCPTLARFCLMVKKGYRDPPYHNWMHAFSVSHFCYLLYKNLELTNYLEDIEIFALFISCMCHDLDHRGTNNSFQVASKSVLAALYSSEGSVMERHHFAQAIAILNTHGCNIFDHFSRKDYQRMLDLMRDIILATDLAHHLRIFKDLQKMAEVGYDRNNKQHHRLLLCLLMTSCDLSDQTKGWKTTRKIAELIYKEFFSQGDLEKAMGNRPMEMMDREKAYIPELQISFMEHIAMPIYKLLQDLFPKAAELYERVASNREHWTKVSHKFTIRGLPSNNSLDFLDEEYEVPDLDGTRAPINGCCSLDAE
T1 sequence (P05067 672-713 limits assumed): as the sequence (P05067 672-713 limits assumed) above
T5 sequence (Q9Y233 714-1055): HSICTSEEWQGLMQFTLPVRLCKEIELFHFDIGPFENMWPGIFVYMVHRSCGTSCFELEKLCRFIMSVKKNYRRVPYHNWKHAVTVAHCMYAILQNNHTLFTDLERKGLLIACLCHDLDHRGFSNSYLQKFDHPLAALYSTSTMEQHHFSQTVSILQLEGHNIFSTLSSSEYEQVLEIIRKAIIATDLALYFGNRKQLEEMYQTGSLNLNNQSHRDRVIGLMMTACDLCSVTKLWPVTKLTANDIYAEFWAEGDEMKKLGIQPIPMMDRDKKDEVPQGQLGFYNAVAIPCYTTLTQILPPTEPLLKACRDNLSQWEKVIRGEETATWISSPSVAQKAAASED

SMILES	IC50 (PDE9A2 (181–506)) [nM]	ORAC [3]	also measured
Oc1c(I)cc(Cl)c2cccnc12 [CQ, clioquinol, reference compound]			disaggregation of Cu^2+-induced Aβ1-42 fibrils (ThT) (Aβ1-42 fibrils): 50.9%; inhibitory ratio of Cu^2+-induced Aβ1-42 aggregation (ThT) (Aβ1-42 [1]): 52.5%; Aβ fibrils by TEM, disaggregation of preformed fibrils (Aβ1-42 [2]): drastically reduced the amount of Aβ fibrils; Aβ fibrils by TEM, inhibition of Cu^2+-induced aggregation (Aβ1-42 [2]): fewer Aβ fibrils were detected; oxygen radical absorbance capacity, ORAC-FL value [3]: 0.62 ORAC-FL units
CN(C)CCCN1c2ccccc2Sc2ccc(Cl)cc21 [Chlorpromazine, reference compound]			Papp at 10 h, 100 μg/mL [4]: 6 ± 0.3 ×10⁻⁶ cm/s
C[C@@H](/N=C/c1ccccc1O)c1nc2c(cnn2C2CCCC2)c(=O)[nH]1 [Compound 12]	211 ± 6	0.23 ± 0.02 μmol of Trolox equiv/μmol tested compound	
COc1ccc(/C=N/[C@H](C)c2nc3c(cnn3C3CCCC3)c(=O)[nH]2)c(O)c1 [Compound 13]	35 ± 3	0.15 ± 0.01 μmol of Trolox equiv/μmol tested compound	
COc1ccc(/C=N/[C@H](C)c2nc3c(cnn3C3CCOCC3)c(=O)[nH]2)c(O)c1 [Compound 14]	12 ± 1	0.22 ± 0.12 μmol of Trolox equiv/μmol tested compound	
C[C@@H](NCc1ccccc1O)c1nc2c(cnn2C2CCCC2)c(=O)[nH]1 [Compound 15]	58 ± 2	4.75 ± 0.72 μmol of Trolox equiv/μmol tested compound	
COc1ccc(CN[C@H](C)c2nc3c(cnn3C3CCOCC3)c(=O)[nH]2)c(O)c1 [Compound 17]	51 ± 2	5.13 ± 0.22 μmol of Trolox equiv/μmol tested compound	Papp at 10 h, 100 μg/mL [4, 6]: 6.54 ± 0.76 ×10⁻⁶ cm/s; prediction of penetration into the CNS [4]: CNS+ (Compounds of high BBB permeation (CNS+) Pe > 4.7)
C[C@H](NCc1ccccc1O)c1nc2c(cnn2C2CCCC2)c(=O)[nH]1 [Compound 18]	114 ± 7	4.51 ± 0.43 μmol of Trolox equiv/μmol tested compound	
COc1ccc(O)c(CN[C@H](C)c2nc3c(cnn3C3CCCC3)c(=O)[nH]2)c1 [Compound 19]	33 ± 3	3.54 ± 0.25 μmol of Trolox equiv/μmol tested compound	
COc1cccc(CN[C@H](C)c2nc3c(cnn3C3CCCC3)c(=O)[nH]2)c1O [Compound 20]	33 ± 4	3.50 ± 0.01 μmol of Trolox equiv/μmol tested compound	
C[C@@H](NCc1cc(Cl)ccc1O)c1nc2c(cnn2C2CCCC2)c(=O)[nH]1 [Compound 21]	47 ± 5	5.84 ± 0.50 μmol of Trolox equiv/μmol tested compound	inhibitory ratio of Cu^2+-induced Aβ1-42 aggregation (ThT) (Aβ1-42 [1]): 65.7%
C[C@@H](NCc1cc(F)ccc1O)c1nc2c(cnn2C2CCCC2)c(=O)[nH]1 [Compound 22]	31 ± 1	5.52 ± 0.51 μmol of Trolox equiv/μmol tested compound	IC50 (PDE2A3 (580–941)): 13000 nM; fold of selectivity of PDE9 over PDE2A3 (PDE2A3 (580–941)): 421 fold; Papp at 10 h, 100 μg/mL [4, 6]: 33.2 ± 4.76 ×10⁻⁶ cm/s; prediction of penetration into the CNS [4]: CNS+ (Compounds of high BBB permeation (CNS+) Pe > 4.7); IC50 (PDE10A2 (448–789)): 33000 nM; logP at 30 min [5]: 1.51; IC50 (PDE1B2 (10–487)): 7000 nM; fold of selectivity of PDE9 over PDE1B2 (PDE1B2 (10–487)): 234 fold; IC50 (PDE7A1 (130–482)): > 40000 nM; fold of selectivity of PDE9 over PDE7A1 (PDE7A1 (130–482)): > 1278 fold; IC50 (PDE8A1 (480–820)): > 50000 nM; fold of selectivity of PDE9 over PDE8A1 (PDE8A1 (480–820)): > 1598 fold; IC50 (PDE4D2 (86–413)): 11000 nM; fold of selectivity of PDE9 over PDE4D2 (PDE4D2 (86–413)): 355 fold; IC50 (PDE3A (679–1087)): > 10000 nM; fold of selectivity of PDE9 over PDE3A (PDE3A (679–1087)): 323 fold; IC50 (PDE5A1 (535–860)): 1600 nM; fold of selectivity of PDE9 over PDE5A1 (PDE5A1 (535–860)): 50 fold
C[C@@H](NCc1cc([N+](=O)[O-])ccc1O)c1nc2c(cnn2C2CCCC2)c(=O)[nH]1 [Compound 23]	36 ± 4	1.02 ± 0.05 μmol of Trolox equiv/μmol tested compound	
C[C@@H](NCc1cc(N(C)C)ccc1O)c1nc2c(cnn2C2CCCC2)c(=O)[nH]1 [Compound 24]	47 ± 3	5.62 ± 0.02 μmol of Trolox equiv/μmol tested compound	
C[C@H](NCc1ccccn1)c1nc2c(cnn2C2CCCC2)c(=O)[nH]1 [Compound 25]	310 ± 13	0 μmol of Trolox equiv/μmol tested compound	
C[C@@H](NCc1ccccn1)c1nc2c(cnn2C2CCCC2)c(=O)[nH]1 [Compound 26]	77 ± 3	0 μmol of Trolox equiv/μmol tested compound	
Cc1cccc(CN[C@H](C)c2nc3c(cnn3C3CCCC3)c(=O)[nH]2)n1 [Compound 27]	60 ± 2	0 μmol of Trolox equiv/μmol tested compound	
C[C@@H](/N=C/c1cccc(Br)n1)c1nc2c(cnn2C2CCCC2)c(=O)[nH]1 [Compound 28]	1160 ± 90	0 μmol of Trolox equiv/μmol tested compound	
C[C@@H](NCc1cccc(Br)n1)c1nc2c(cnn2C2CCCC2)c(=O)[nH]1 [Compound 29]	38 ± 3	0 μmol of Trolox equiv/μmol tested compound	inhibitory ratio of Cu^2+-induced Aβ1-42 aggregation (ThT) (Aβ1-42 [1]): 59.1%
COc1ccc2[nH]cc(CCNC(C)=O)c2c1 [melatonin, reference compound]			oxygen radical absorbance capacity, ORAC-FL value [3]: 2.00 ORAC-FL units
